Assay results: US8232406B2, “c-MET protein kinase inhibitors” (Vertex Pharmaceuticals Incorporated, priority 2006, dated 2012)

target: c-MET (Homo sapiens, UniProt P08581); assay: Ki determination for the inhibition of c-MET (standard radiometric 33P-ATP kinase assay, polyE4Y substrate); assay type: biochemical; settings: 1.0 nM c-Met, 35 μM ATP, 0.5 mg/mL polyE4Y, 20 min; competitive tight-binding fit
Procedure: Ki Determination for the Inhibition of c-MET
Compounds of the invention were screened for their ability to inhibit c-MET kinase activity using a standard radiometric assay. Briefly, in this kinase assay the transfer of the terminal ^33P-phosphate in ^33P-ATP to substrate polyE4Y is interrogated. The assay was carried out in 96-well plates to a final volume of 100 μL per well containing 1.0 nM c-Met, 100 mM HEPES (pH 7.5), 10 mM MgCl2, 25 mM NaCl, 0.01% BSA, 1 mM DTT, 0.5 mg/mL polyE4Y, and 35 μM ATP. Accordingly, compounds of the invention were dissolved in DMSO to make 10 mM initial stock solutions. Serial dilutions in DMSO were then made to obtain the final solutions for the assay. A 1.5 μL aliquot of DMSO or inhibitor in DMSO was added to each well. The reaction was initiated by the addition of ^33P-ATP and polyE4Y (obtained from Sigma). After 20 min, the reaction was quenched with 50 μL of 30% trichloroacetic acid (TCA) containing 4 mM ATP. The reaction mixture was transferred to the 0.66 mm GF filter plates (Corning) and washed three times with 5% TCA. Following the addition of 50 μL of Ultimate Gold™ high efficiency scintillant (Packard Bioscience), the samples were counted in a Packard TopCount NXT Microplate Scintillation and Luminescence Counter (Packard BioScience). The Ki values were calculated using Microsoft Excel Solver macros to fit the data to the kinetic model for competitive tight-binding inhibition.

Sequence of c-MET (P08581 25-1390): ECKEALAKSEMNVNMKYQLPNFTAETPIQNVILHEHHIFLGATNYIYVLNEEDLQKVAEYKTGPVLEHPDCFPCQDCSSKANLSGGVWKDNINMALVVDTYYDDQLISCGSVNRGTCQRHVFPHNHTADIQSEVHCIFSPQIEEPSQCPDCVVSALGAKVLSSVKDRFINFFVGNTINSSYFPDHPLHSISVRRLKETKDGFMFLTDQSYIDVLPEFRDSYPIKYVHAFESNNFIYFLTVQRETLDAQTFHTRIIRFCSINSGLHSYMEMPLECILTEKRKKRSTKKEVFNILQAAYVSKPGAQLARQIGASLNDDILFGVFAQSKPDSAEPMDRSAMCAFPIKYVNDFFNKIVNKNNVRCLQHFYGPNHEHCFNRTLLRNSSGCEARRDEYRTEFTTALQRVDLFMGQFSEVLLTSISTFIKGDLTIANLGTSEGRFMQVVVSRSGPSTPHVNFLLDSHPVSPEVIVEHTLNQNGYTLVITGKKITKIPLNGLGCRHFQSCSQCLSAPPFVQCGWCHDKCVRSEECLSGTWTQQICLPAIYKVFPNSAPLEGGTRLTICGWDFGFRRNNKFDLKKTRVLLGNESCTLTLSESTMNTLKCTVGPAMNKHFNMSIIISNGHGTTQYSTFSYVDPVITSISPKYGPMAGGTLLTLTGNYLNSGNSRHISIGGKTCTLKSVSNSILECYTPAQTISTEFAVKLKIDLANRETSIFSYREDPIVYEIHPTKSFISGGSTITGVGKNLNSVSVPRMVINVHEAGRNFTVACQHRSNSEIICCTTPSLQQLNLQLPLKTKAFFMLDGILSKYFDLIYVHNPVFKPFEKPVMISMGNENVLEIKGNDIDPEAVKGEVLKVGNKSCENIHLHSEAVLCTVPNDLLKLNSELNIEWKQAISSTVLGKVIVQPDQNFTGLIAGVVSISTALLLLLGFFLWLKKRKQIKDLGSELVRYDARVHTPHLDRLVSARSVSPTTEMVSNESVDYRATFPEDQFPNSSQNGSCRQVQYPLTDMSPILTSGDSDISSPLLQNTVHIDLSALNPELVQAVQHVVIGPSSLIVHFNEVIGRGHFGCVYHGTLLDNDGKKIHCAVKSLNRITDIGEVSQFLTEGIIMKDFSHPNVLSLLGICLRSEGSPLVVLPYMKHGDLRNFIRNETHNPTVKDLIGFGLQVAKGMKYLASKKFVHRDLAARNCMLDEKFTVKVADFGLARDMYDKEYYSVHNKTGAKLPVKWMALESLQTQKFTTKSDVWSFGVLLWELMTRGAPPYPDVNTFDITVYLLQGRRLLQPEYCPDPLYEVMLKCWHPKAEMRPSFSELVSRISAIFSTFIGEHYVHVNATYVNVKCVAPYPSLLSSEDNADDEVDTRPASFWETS

Nc1ncc(C2=CCN(C(=O)[C@@H]3CCCN3)CC2)cc1-c1nnnn1-c1cccc(F)c1F [I-A-504] and Nc1ncc(C2=CCN(C(=O)OC3CCOC3)CC2)cc1-c1nnnn1-c1cccc(F)c1F (stereo not shown) [I-A-520] cannot be ordered by Ki: no more than 100 nM for the first, no more than 100 nM for the second.

Nc1ncc(-c2ccc(CN3CCCC3)cc2)cc1-c1nnnn1-c1c(F)ccc(F)c1F [I-A-380] and Nc1ncc(-c2ccc(CN3CCCC3)cc2)cc1-c1nnnn1-c1cc(F)ccc1F [I-A-594] cannot be ordered by Ki: no more than 100 nM for the first, 100 to 1000 nM for the second.

Cn1cc(-c2cccc(Cl)c2Cl)c(-c2cc(-c3cccnc3)cnc2N)n1 [I-B-16] and Nc1ncc(-c2cccnc2)cc1-c1nnnn1-c1c(Cl)cccc1Cl [I-A-609] fall in the same range of Ki: 100 to 1000 nM for the first, 100 to 1000 nM for the second.

Nc1ncc(-c2cccc(NC(=O)NC3CCCC3)c2)cc1-c1nnnn1-c1cccc(F)c1F [I-A-329] and Nc1ncc(-c2cccc(NC(=O)Nc3cccs3)c2)cc1-c1nnnn1-c1cccc(F)c1F [I-A-275] cannot be ordered by Ki: no more than 100 nM for the first, 100 to 1000 nM for the second.

CCOC(=O)CC(=O)Nc1ccc(-c2cnc(N)c(-c3nnnn3-c3cccc(F)c3F)c2)cc1 [I-A-196] and Nc1ncc(-c2ccc(NC(=O)Nc3cccnc3)cc2)cc1-c1nnnn1-c1cccc(F)c1F [I-A-278] fall in the same range of Ki: 100 to 1000 nM for the first, 100 to 1000 nM for the second.

Nc1ncc(-c2ccc(CN3CCCC3)cc2)cc1-c1nc2cccnc2n1-c1cccc(Cl)c1F [I-D-14] and Nc1ncc(-c2ccc(CN3CCCC3)cc2)cc1-c1nnc(O)n1-c1cccc(F)c1F [I-A-362] fall in the same range of Ki: 100 to 1000 nM for the first, 100 to 1000 nM for the second.

Nc1ncc(-c2ccc(CN3CCCCC3)cc2)cc1-c1nnnn1-c1cccc(F)c1F [I-A-134] and COC[C@H]1CCCN1Cc1ccc(-c2cnc(N)c(-c3nnnn3-c3cccc(F)c3F)c2)cc1 [I-A-264] cannot be ordered by Ki: no more than 100 nM for the first, no more than 100 nM for the second.

CN(C)CCn1cc(-c2cnc(N)c(-c3nc4cnccc4n3-c3cccc(F)c3F)c2)cn1 [I-D-9] and COCCn1cc(-c2cnc(N)c(-c3nnnn3-c3cccc(F)c3F)c2)cn1 [I-A-367] cannot be ordered by Ki: no more than 100 nM for the first, no more than 100 nM for the second.

COCCOC(=O)N1CCC(n2cc(-c3cnc(N)c(-c4nnnn4-c4cccc(Cl)c4F)c3)cn2)CC1 [I-A-440] and Nc1ncc(-c2cnn(C3CCNCC3)c2)cc1-n1nnnc1-c1cccc(F)c1F [I-E-1] cannot be ordered by Ki: no more than 100 nM for the first, 100 to 1000 nM for the second.

CCOc1cccc(-c2cnc(N)c(-c3nnnn3-c3cccc(F)c3F)c2)c1 [I-A-315] and CN[C@@H](C)c1ccc(-c2cnc(N)c(-c3nnnn3-c3cccc(F)c3F)c2)cc1 [I-A-351] cannot be ordered by Ki: 100 to 1000 nM for the first, no more than 100 nM for the second.

NCN1CCN(Cc2ccc(-c3cnc(N)c(-c4nnnn4-c4cccc(Cl)c4Cl)c3)cc2)CC1 [I-A-108] and Cc1c(Cl)cccc1-n1nnnc1-c1cc(-c2ccc(CN(C)C)cc2)cnc1N [I-A-578] cannot be ordered by Ki: no more than 100 nM for the first, 100 to 1000 nM for the second.

Nc1ncc(-c2ccc(C3CCNCC3)s2)cc1-c1nnnn1-c1cccc(Cl)c1F [I-A-532] and Nc1ncc(-c2ccc(C3CCNCC3)s2)cc1-c1nnnn1-c1cccc(Cl)c1Cl [I-A-416] cannot be ordered by Ki: no more than 100 nM for the first, no more than 100 nM for the second.

Nc1ncc(C2=CCN(CC3CCOC3)CC2)cc1-c1nnnn1-c1cccc(F)c1F (stereo not shown) [I-A-643] and COCCC(=O)N1CC=C(c2cnc(N)c(-c3nnnn3-c3cccc(F)c3F)c2)CC1 [I-A-514] cannot be ordered by Ki: 100 to 1000 nM for the first, no more than 100 nM for the second.

Nc1ncc(-c2cc3c(s2)CNCC3)nc1-c1nnnn1-c1cccc(Cl)c1F [I-A-542] and Nc1ncc(-c2cnn([C@H]3CCNC3)c2)nc1-c1nnnn1-c1cccc(F)c1F [I-A-536] cannot be ordered by Ki: no more than 100 nM for the first, no more than 100 nM for the second.

CCNC(=O)Nc1nc2cc(-c3cnc(N)c(-c4nnnn4-c4cccc(Cl)c4Cl)c3)c(F)cc2[nH]1 [I-A-93] and CCNC(=O)Nc1nc2cc(F)c(-c3cnc(N)c(-c4nnnn4-c4cccc(F)c4F)n3)cc2[nH]1 [I-A-53] fall in the same range of Ki: 100 to 1000 nM for the first, 100 to 1000 nM for the second.

CC(=O)Nc1cccc(-c2cnc(N)c(-c3nnnn3-c3c(F)ccc(F)c3Cl)c2)c1 [I-A-613] and CN1CCN(c2ccc(-c3cnc(N)c(-c4nnnn4-c4cccc(F)c4F)c3)cc2)CC1 [I-A-19] cannot be ordered by Ki: 100 to 1000 nM for the first, no more than 100 nM for the second.

CN1CCN(Cc2ccc(-c3cnc(N)c(-c4nnc(O)n4-c4cccc(F)c4F)c3)cc2)CC1 [I-A-42] and Nc1ncc(C2=CCCN(C(=O)C(F)(F)F)CC2)cc1-c1nnnn1-c1cccc(F)c1F [I-A-647] fall in the same range of Ki: 100 to 1000 nM for the first, 100 to 1000 nM for the second.
